The source of these data is patent US20130317069A1, “2,4-(SUBSTITUTED AROMATIC)-1,3-OXAZOLINE COMPOUNDS AS A SEED TREATMENT TO CONTROL PESTS” (Dow Agrosciences LLC, priority 2012, published 2013).

The first assay has as its system Myzus persicae (green peach aphid). Briefly: Insecticidal activity on green peach aphid, spray on infested cabbage leaves. It counts as in vivo. As to conditions: 72 h, Rate 50 PPM spray on infested cabbage leaves until runoff, graded after 3 days at 26° C., count compared with untreated check. The protocol: (§1) Different 2,4-(substituted aromatic)-1,3-oxazoline compounds were tested for insecticidal activity on Spodoptera exigua (beet armyworm) and Myzus persicae (green peach aphid).
The different 2,4-(substituted aromatic)-1,3-oxazoline compounds used on Myzus persicae were formulated as test spray solutions. To prepare the test spray solutions, 1 mg of each of the different 2,4-(substituted aromatic)-1,3-oxazoline compounds was dissolved into 1 mL of a 90:10 acetone:ethanol solvent. The resulting solution was added to 19 mL of water containing 0.05% Tween surfactant to produce different 50 PPM spray solutions. Cabbage leaves were […] with green peach aphid (all life stages) 16-20 hours prior to application of the different spray solutions. The different spray solutions were sprayed on both sides of each infested cabbage leaf with a sweeping action until runoff. The cabbage leaves were allowed to dry and were held for 3 days in a controlled room at 26° C. and 40% RH, after which time the test was graded. Grading was by actual count using a dissecting microscope and comparison of test counts to an untreated check. The average % mortality was then determined. In Table 1, “NT” means insecticidal activity was not tested for the 2,4-(substituted aromatic)-1,3-oxazoline compound at this rate.
On to `Cc1cc(-c2ccc(OC(F)(F)F)cc2)ccc1C1COC(c2c(F)cccc2Cl)=N1` (centres unmarked) [(VIII)], for which the mortality (in general, the percentage killed) at 50 ppm came out at 66%.
On to `C[C@H]1OC(c2c(F)cccc2F)=N[C@H]1c1ccc(-c2ccc(OC(F)(F)F)cc2)cc1` (stereo in doubt) [(XVI)], for which the mortality at 50 ppm is 95%.
Still for that read-out and setting: the result for `CCOc1ccc(-c2ccc(C3COC(c4c(Cl)cncc4Cl)=N3)c(C)c2)cc1` (centres unmarked) [(VII)] reads 82%; that for `C[C@@H]1OC(c2c(F)cccc2Cl)=N[C@@H]1c1ccc(-c2ccc(OC(F)(F)F)cc2)cc1` (stereo in doubt) [(XII)], 86%.
Still for that read-out and setting: the result for `C[C@@H]1OC(c2c(F)cccc2F)=N[C@@H]1c1ccc(-c2ccc(C(F)(F)F)cc2)cc1` (stereo in doubt) [(III)] reads 32%.
On the same count and under the same terms, as for `Cc1ccc(-c2ccc([C@@H]3N=C(c4c(F)cccc4F)O[C@H]3C)cc2)cc1C` (stereo in doubt) [(IX)], the figure is 0%.
As for `FC(F)(F)c1ccc(-c2ccc(C3COC(c4c(Cl)cncc4Cl)=N3)cc2)c(Cl)c1` (centres unmarked) [(I)], the mortality at 50 ppm is 18%.
The molecule `Cc1cc(-c2ccc(C(F)(F)F)cc2)ccc1C1COC(c2c(Cl)cncc2Cl)=N1` (centres unmarked) [(VI)] displayed a mortality at 50 ppm of 20%.
Same read-out and setting: as for `Cc1ccccc1C1=N[C@@H](c2ccc(-c3ccc(C(F)(F)F)cc3)cc2)[C@@H](C)O1` (stereo in doubt) [(X)], the figure is 88%; as for `CCOc1ccc(-c2ccc([C@H]3N=C(c4c(F)cccc4Cl)O[C@H]3C)cc2)cc1` (stereo in doubt) [(XIII)], 82%; as for `Cc1ccccc1C1=N[C@@H](c2ccc(-c3ccc(OC(F)(F)F)cc3)cc2)[C@@H](C)O1` (stereo in doubt) [(XI)], 71%.
On the same count and under the same terms, as for `FC(F)(F)c1ccc(-c2ccc(C3COC(c4c(Cl)cncc4Cl)=N3)cc2)cc1` (centres unmarked) [(XV)], the figure is 75%.
Take `CCOc1ccc(-c2ccc(C3N=C(c4c(F)cccc4F)OC3(C)C)cc2)cc1` (centres unmarked) [(XIV)]: the mortality at 50 ppm was found to be 40%.

A further assay has as its system Spodoptera exigua (beet armyworm). Briefly: Insecticidal activity on beet armyworm, treated lepidopteran diet. The following applies: 120 h, Rate 400 PPM, 250 μL test solution on diet surface, second-instar larvae, 5 days at 25° C., five insects per treatment. It counts as in vivo. The method, then: as §1
The different 2,4-(substituted aromatic)-1,3-oxazoline compounds used on Spodoptera exigua were formulated as test solutions. To prepare the test solutions, the different 2,4-(substituted aromatic)-1,3-oxazoline compounds were formulated at 400 PPM in 7.5 mL of 2:1 acetone:tap water solvent. 250 μL of each test solution was pipetted upon the surface of 8 mL of lepidopteran diet (modified Shorey) contained in each of five one-ounce plastic cups (one cup=1 replication). A second-instar beet armyworm was placed upon the treated diet in each cup once the solvent had air-dried. The cups containing the treated lepidopteran diet and the beet armyworms were capped and then held in a growth chamber at 25° C., 50-55% RH, and 14 hours light:10 hours dark for 5 days. The average % mortality was determined from the number of dead insects of five per treatments.
As to `Cc1cc(-c2ccc(OC(F)(F)F)cc2)ccc1C1COC(c2c(F)cccc2Cl)=N1` (centres unmarked) [(VIII)], the mortality at 400 ppm came out at 100%.
Turning to `C[C@H]1OC(c2c(F)cccc2F)=N[C@H]1c1ccc(-c2ccc(OC(F)(F)F)cc2)cc1` (stereo in doubt) [(XVI)], the mortality at 400 ppm stood at 100%.
On to `Clc1cncc(Cl)c1C1=NC(c2ccc(-c3ccccc3)cc2)CO1` (centres unmarked) [(IV)], for which the mortality at 400 ppm amounted to 80%.
On the same count and under the same terms, as for `Fc1ccc(C(F)(F)F)cc1-c1ccc(C2COC(c3c(Cl)cncc3Cl)=N2)cc1` (centres unmarked) [(V)], the figure is 60%; as for `CCOc1ccc(-c2ccc(C3COC(c4c(Cl)cncc4Cl)=N3)c(C)c2)cc1` (centres unmarked) [(VII)], 100%; as for `C[C@@H]1OC(c2c(F)cccc2Cl)=N[C@@H]1c1ccc(-c2ccc(OC(F)(F)F)cc2)cc1` (stereo in doubt) [(XII)], 100%.
Still for that read-out and setting: as for `C[C@@H]1OC(c2c(F)cccc2F)=N[C@@H]1c1ccc(-c2ccc(C(F)(F)F)cc2)cc1` (stereo in doubt) [(III)], the figure is 100%; as for `Cc1ccc(-c2ccc([C@@H]3N=C(c4c(F)cccc4F)O[C@H]3C)cc2)cc1C` (stereo in doubt) [(IX)], 60%; as for `FC(F)(F)c1ccc(-c2ccc(C3COC(c4c(Cl)cncc4Cl)=N3)cc2)c(Cl)c1` (centres unmarked) [(I)], 100%.
`Cc1cc(-c2ccc(C(F)(F)F)cc2)ccc1C1COC(c2c(Cl)cncc2Cl)=N1` (centres unmarked) [(VI)] displayed a mortality at 400 ppm of 100%.
Still for that read-out and setting: the result for `Cc1ccccc1C1=N[C@@H](c2ccc(-c3ccc(C(F)(F)F)cc3)cc2)[C@@H](C)O1` (stereo in doubt) [(X)] reads 100%.
Still for that read-out and setting: as for `CCOc1ccc(-c2ccc([C@H]3N=C(c4c(F)cccc4Cl)O[C@H]3C)cc2)cc1` (stereo in doubt) [(XIII)], the figure is 100%.
Still for that read-out and setting: as for `Cc1ccccc1C1=N[C@@H](c2ccc(-c3ccc(OC(F)(F)F)cc3)cc2)[C@@H](C)O1` (stereo in doubt) [(XI)], the figure is 100%.
On to `FC(F)(F)c1ccc(-c2ccc(C3COC(c4c(Cl)cncc4Cl)=N3)cc2)cc1` (centres unmarked) [(XV)], for which the mortality at 400 ppm amounted to 100%.
Regarding `CCOc1ccc(-c2ccc(C3N=C(c4c(F)cccc4F)OC3(C)C)cc2)cc1` (centres unmarked) [(XIV)], the mortality at 400 ppm came out at 60%.
On the same count and under the same terms, as for `Fc1cncc(F)c1C1=NC(c2ccc(-c3ccc(C(F)(F)F)cc3)cc2)CO1` (centres unmarked) [(II)], the figure is 80%.
